Structures are written as SMILES.

In test [1] the target is T1, human recombinant 15-PGDH (Homo sapiens, UniProt P15428).
T1 sequence (P15428 1-266): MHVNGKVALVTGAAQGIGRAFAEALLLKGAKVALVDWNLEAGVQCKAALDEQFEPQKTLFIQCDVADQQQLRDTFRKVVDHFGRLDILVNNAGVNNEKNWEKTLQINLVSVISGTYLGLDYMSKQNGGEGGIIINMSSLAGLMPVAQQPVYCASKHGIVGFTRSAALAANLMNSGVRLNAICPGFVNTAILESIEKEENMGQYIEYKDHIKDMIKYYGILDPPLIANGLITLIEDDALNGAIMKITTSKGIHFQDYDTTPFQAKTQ
Description: Recombinant 15-PGDH enzymatic inhibition assay (PGDH-Lumi, NADH signal). The test is classed as biochemical. The note with it: recombinant 15-PGDH; 15 min pre-incubation, 60 min reaction with PGE2 and NAD+, NADH signal. Summed up:
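Recombinant 15-PGDH pre-incubated 15 min at room temperature with compound (22 concentrations, 2-fold dilutions) in 50 mM Tris pH 7.5, 0.01% Tween-20, […].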

In a further test the target is T2, 15-PGDH in A549 cells (Homo sapiens, UniProt P15428).
T2 construct: endogenous in cells; host or cells: A549
T2 sequence (P15428 1-266): T1 sequence (P15428 1-266)
The test is described as follows: A549 cellular 15-PGDH assay (PGE2 accumulation, HTRF). Type of test: cell-based. Particulars: interleukin-stimulated, inhibitor 24 hrs, PGE2 by competitive HTRF, read-out: A549 Cell Assay IC50. The procedure, abridged: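 IL-13-stimulated A549 lung carcinoma cells released PGE2, which was measured in supernatants by competitive HTRF with a Eu-cryptate anti-PGE2 antibody and labelled PGE2. Signal falls as PGE2 rises. IC50 values were derived from the binding data.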

In the case of `Cn1cc2cc(-c3ccc4cc(C5(O)CC6(CC(F)(F)C6)C5)sc4n3)cnc2n1` [Compound C27, 6,6-difluoro-2-(6-(2-methyl-2H-pyrazolo[3,4-b]pyridin-5-yl)thieno[2,3-b]pyridin-2-yl)spiro[3.3]heptan-2-ol], the IC50 – broadly, the concentration at which inhibition is half-maximal – in test [1] was determined as 0.379 nM; at 15-PGDH in A549 cells, 0.0582 nM.

`Cn1cc2cc(-c3ccc4cc(C5(O)CC6(COC6)C5)sc4n3)cnc2n1` [Compound C28]: the IC50 in test [1] is 0.472 nM; at 15-PGDH in A549 cells it was 0.452 nM.

For the compound `Cn1cc2cc(-c3ccc4cc([C@]5(O)C[C@@H](C(F)(F)F)C5)sc4n3)cnc2n1` [Compound C29C, cis-1-(6-(2-methyl-2H-pyrazolo[3,4-b]pyridin-5-yl)thieno[2,3-b]pyridin-2-yl)-3-(trifluoromethyl)cyclobutanol], the values for the IC50 (in test [1]; at 15-PGDH in A549 cells) were 0.3 nM and 0.0513 nM, respectively.

Consider `Cn1cc2cc(-c3ccc4cc([C@]5(O)C[C@@H](C(F)F)C5)sc4n3)cnc2n1` [Compound C30C, cis-3-(difluoromethyl)-1-(6-(2-methyl-2H-pyrazolo[3,4-b]pyridin-5-yl)thieno[2,3-b]pyridin-2-yl)cyclobutanol], for which the IC50 in test [1] was determined as 0.278 nM; at 15-PGDH in A549 cells, 0.137 nM.

Turning to `CO[C@H]1C[C@](O)(c2cc3ccc(-c4cnc5nn(C)cc5c4)nc3s2)C1` [Compound C31C, cis-3-methoxy-1-(6-(2-methyl-2H-pyrazolo[3,4-b]pyridin-5-yl)thieno[2,3-b]pyridin-2-yl)cyclobutanol], the IC50 in test [1] worked out at 0.356 nM; at 15-PGDH in A549 cells, 0.157 nM.

Regarding `CCn1cc2cc(-c3ccc4cc(C5(O)CC(F)(F)C5)sc4n3)cnc2n1` [Compound C32, 1-(6-(2-ethyl-2H-pyrazolo[3,4-b]pyridin-5-yl)thieno[2,3-b]pyridin-2-yl)-3,3-difluorocyclobutanol], the IC50 was 0.369 nM in test [1] and 0.255 nM at 15-PGDH in A549 cells.

`Cn1cnc2cc(-c3ccc4cc(C5(O)CC(F)(F)C5)sc4n3)cnc21` [Compound C33, 3,3-difluoro-1-(6-(3-methyl-3H-imidazo[4,5-b]pyridin-6-yl)thieno[2,3-b]pyridin-2-yl)cyclobutanol]: the values for the IC50 (in test [1]; on 15-PGDH in A549 cells) were 2.55 nM and 1.08 nM, respectively.

`Cc1nc2ncc(-c3ccc4cc(C5(O)CC(F)(F)C5)sc4n3)cc2o1` [Compound C34, 3,3-difluoro-1-(6-(2-methyl[1,3]oxazolo[4,5-b]pyridin-6-yl)thieno[2,3-b]pyridin-2-yl)cyclobutanol]: the 50% inhibitory concentration (IC50) in test [1] stood at 0.78 nM; on 15-PGDH in A549 cells it was 1.35 nM.

For `Cc1nc2cc(-c3ccc4cc(C5(O)CC(F)(F)C5)sc4n3)cnc2[nH]1` [Compound C35, 3,3-difluoro-1-(6-(2-methyl-3H-imidazo[4,5-b]pyridin-6-yl)thieno[2,3-b]pyridin-2-yl)cyclobutanol], the IC50 in test [1] was determined as 0.832 nM; on 15-PGDH in A549 cells, 1.35 nM.

As to `OC1(c2cc3ccc(-c4cnc5[nH]ncc5c4)nc3s2)CC(F)(F)C1` [Compound C36, 3,3-difluoro-1-(6-(1H-pyrazolo[3,4-b]pyridin-5-yl)thieno[2,3-b]pyridin-2-yl)cyclobutanol], the IC50 in test [1] was 0.756 nM; at 15-PGDH in A549 cells it was 0.348 nM.

`Cc1cn2cc(-c3ccc4cc(C5(O)CC(F)(F)C5)sc4n3)ccc2n1` [Compound C37, 3,3-difluoro-1-(6-(2-methylimidazo[1,2-a]pyridin-6-yl)thieno[2,3-b]pyridin-2-yl)cyclobutanol]: the figures for the IC50 (in test [1]; at 15-PGDH in A549 cells) were 9.01 nM and 2.28 nM, respectively.

For the compound `Nc1ncc(-c2ccc3cc(C4(O)CC(F)(F)C4)sc3n2)cn1` [Compound C38, 1-(6-(2-amino-5-pyrimidinyl)thieno[2,3-b]pyridin-2-yl)-3,3-difluorocyclobutanol], the values for the IC50 (in test [1]; at 15-PGDH in A549 cells) were 4.59 nM and 3.75 nM, respectively.

`Cc1nc2ccc(-c3ccc4cc(C5(O)CC(F)(F)C5)sc4n3)cc2o1` [Compound C39, 3,3-difluoro-1-(6-(2-methyl-1,3-benzoxazol-6-yl)thieno[2,3-b]pyridin-2-yl)cyclobutanol]: the values for the IC50 (in test [1]; on 15-PGDH in A549 cells) were 10 nM and 2.87 nM, respectively.

Regarding `Cn1cc2cc(-c3ccc4cc([C@]5(O)C[C@@H](F)C5)sc4n3)cnc2n1` [Compound C40C, cis-3-fluoro-1-(6-(2-methyl-2H-pyrazolo[3,4-b]pyridin-5-yl)thieno[2,3-b]pyridin-2-yl)cyclobutanol], the IC50 is 0.742 nM in test [1] and 1.22 nM at 15-PGDH in A549 cells.

As for `Cn1cc2cc(-c3ccc4cc([C@]5(O)C[C@H](F)C5)sc4n3)cnc2n1` [Compound C40T, trans-3-fluoro-1-(6-(2-methyl-2H-pyrazolo[3,4-b]pyridin-5-yl)thieno[2,3-b]pyridin-2-yl)cyclobutanol], the figures for the IC50 (in test [1]; on 15-PGDH in A549 cells) were 6.58 nM and 3.36 nM, respectively.

For the compound `OC1(c2cc3ccc(-c4cnc5[nH]cnc5c4)nc3s2)CC(F)(F)C1` [Compound C41, 3,3-difluoro-1-(6-(3H-imidazo[4,5-b]pyridin-6-yl)thieno[2,3-b]pyridin-2-yl)cyclobutanol], the IC50 in test [1] amounted to 1.24 nM; on 15-PGDH in A549 cells it was 2.15 nM.

For the compound `OC1(c2cc3ccc(-c4ccc5[nH]ncc5c4)nc3s2)CC(F)(F)C1` [Compound C42, 3,3-difluoro-1-(6-(1H-indazol-5-yl)thieno[2,3-b]pyridin-2-yl)cyclobutanol], the concentration for half-maximal inhibition (IC50) in test [1] came to 23.8 nM; at 15-PGDH in A549 cells, 6.81 nM.

`CNc1ncc(-c2ccc3cc(C4(O)CC(F)(F)C4)sc3n2)cn1` [Compound C43, 3,3-difluoro-1-(6-(2-(methylamino)-5-pyrimidinyl)thieno[2,3-b]pyridin-2-yl)cyclobutanol]: the figures for the IC50 (in test [1]; at 15-PGDH in A549 cells) were 5.3 nM and 6.34 nM, respectively.

As for `Cc1cn2ccc(-c3ccc4cc(C5(O)CC(F)(F)C5)sc4n3)cc2n1` [Compound C44, 3,3-difluoro-1-(6-(2-methylimidazo[1,2-a]pyridin-7-yl)thieno[2,3-b]pyridin-2-yl)cyclobutanol], the IC50 stood at 7.56 nM in test [1] and 6.17 nM on 15-PGDH in A549 cells.

For the compound `Cc1cn2cc(-c3ccc4cc(C5(O)CC(F)(F)C5)sc4n3)cnc2n1` [Compound C45, 3,3-difluoro-1-(6-(2-methylimidazo[1,2-a]pyrimidin-6-yl)thieno[2,3-b]pyridin-2-yl)cyclobutanol], the IC50 in test [1] is 1.68 nM; on 15-PGDH in A549 cells it was 1.35 nM.

For the compound `OC1(c2cc3ccc(-c4cncnc4)nc3s2)CC(F)(F)C1` [Compound C46, 3,3-difluoro-1-(6-(5-pyrimidinyl)thieno[2,3-b]pyridin-2-yl)cyclobutanol], the half-inhibitory concentration (IC50) in test [1] stood at 26.1 nM; on 15-PGDH in A549 cells it was 12.3 nM.

Take `OC1(c2cc3ccc(-c4cnc5nccnc5c4)nc3s2)CC(F)(F)C1` [Compound C47, 3,3-difluoro-1-(6-(pyrido[2,3-b]pyrazin-7-yl)thieno[2,3-b]pyridin-2-yl)cyclobutanol]: the results for the IC50 (in test [1]; on 15-PGDH in A549 cells) were 0.996 nM and 0.373 nM, respectively.

`Cn1cc2cc(-c3ccc4cc(C5(O)CC(F)(F)C5)sc4c3)cnc2n1` [Compound C48, 3,3-difluoro-1-(6-(2-methyl-2H-pyrazolo[3,4-b]pyridin-5-yl)-1-benzothiophen-2-yl)cyclobutanol]: the IC50 in test [1] is 27.7 nM; on 15-PGDH in A549 cells, 7.36 nM.

Turning to `Cn1cc2cc(-c3ccc4cc(C5(O)CC(F)(F)C5)sc4n3)ccc2n1` [Compound C49, 3,3-difluoro-1-(6-(2-methyl-2H-indazol-5-yl)thieno[2,3-b]pyridin-2-yl)cyclobutanol], the values for the IC50 (in test [1]; on 15-PGDH in A549 cells) were 13.2 nM and 1.82 nM, respectively.

Turning to `OC1(c2cc3ccc(-c4ccc5oncc5c4)nc3s2)CC(F)(F)C1` [Compound C50, 1-(6-(1,2-benzoxazol-5-yl)thieno[2,3-b]pyridin-2-yl)-3,3-difluorocyclobutanol], the IC50 in test [1] was 34.7 nM; at 15-PGDH in A549 cells, 11.1 nM.

On to `Cn1nnc2cc(-c3ccc4cc(C5(O)CC(F)(F)C5)sc4n3)cnc21` [Compound C51, 3,3-difluoro-1-(6-(3-methyl-3H-[1,2,3]triazolo[4,5-b]pyridin-6-yl)thieno[2,3-b]pyridin-2-yl)cyclobutanol], for which the half-maximal inhibitory concentration (IC50) in test [1] was 2.19 nM; at 15-PGDH in A549 cells it was 1.1 nM.

Consider `Cn1cc2cc(-c3ccc4cc(C5(O)CC6(CCCCC6)C5)sc4n3)cnc2n1` [Compound C52, 2-(6-(2-methyl-2H-pyrazolo[3,4-b]pyridin-5-yl)thieno[2,3-b]pyridin-2-yl)spiro[3.5]nonan-2-ol], for which the IC50 in test [1] came to 0.361 nM; on 15-PGDH in A549 cells, 0.0938 nM.

For the compound `Cn1cc2cc(-c3ccc4cc(C5(O)CC6(CCCC6)C5)sc4n3)cnc2n1` [Compound C53, 2-(6-(2-methyl-2H-pyrazolo[3,4-b]pyridin-5-yl)thieno[2,3-b]pyridin-2-yl)spiro[3.4]octan-2-ol], the results for the IC50 (in test [1]; at 15-PGDH in A549 cells) were 0.363 nM and 0.0361 nM, respectively.

With `Cc1cn2ncc(-c3ccc4cc(C5(O)CC(F)(F)C5)sc4n3)cc2n1` [Compound C54, 3,3-difluoro-1-(6-(2-methylimidazo[1,2-b]pyridazin-7-yl)thieno[2,3-b]pyridin-2-yl)cyclobutanol], the IC50 was 3.51 nM in test [1] and 3.06 nM on 15-PGDH in A549 cells.

For `OC1(c2cc3ccc(-c4cnc5[nH]nnc5c4)nc3s2)CC(F)(F)C1` [Compound C55], the figures for the 50% inhibitory concentration (IC50) (in test [1]; on 15-PGDH in A549 cells) were 0.821 nM and 1.59 nM, respectively.

These data come from patent US20240409557A1, “5,6-FUSED AND 6,6-FUSED BICYCLIC ALCOHOLS AND ETHERS AND COMPOSITIONS FOR USE AS 15-PROSTAGLANDIN DEHYDROGENASE MODULATORS” (AMGEN INC., priority 2023, published 2024).
